In article PMC10044725, “Antioxidant, Anti-Inflammatory and Anti-Diabetic Activities of Tectona grandis Methanolic Extracts, Fractions, and Isolated Compounds” (Antioxidants, 2023):

Legend:
[1] = DPPH free radical scavenging assay; settings: isolated compounds; half scavenging concentration; read-out: DPPH Assay SC50
Method: The DPPH free radical scavenging activities of T. grandis methanolic extract, different fractions and its compounds were conducted according to Dr. Yang et al.. […] The absorbance was measured using a microplate reader at 517 nm, and ascorbic acid was used as a positive control. The DPPH scavenging activity was calculated according to the following formula: Scavenging activity (%) = [1 − (A1 − A2)/(A3 − A4)] × 100% (1) where A1 is the OD value of the tested samples, A2 is the OD value of the sample control, A3 is the OD value of the negative control and A4 is the OD value of the blank control. The analysis was performed in triplicates and the results were described as SC50 values.

BSA = experiment: Prevention of AAPH-induced protein oxidative damage; set-up: species or system Bovine; settings: AAPH 160 mM; residual BSA
Method: The protective activities of T. grandis methanolic extract, different fractions and its compounds 15 and 23 on protein oxidative damage were carried out using the method of Yang et al.. Initially, 20 μL BSA solutions (1 mg/mL) in PBS (0.1 M, pH 6.8) were mixed with different concentrations of fractions (40 μL) and compounds (40 μL) and incubated in water at 37 °C for 30 min. Then, 40 μL AAPH (160 mM) was added to the mixture and the reaction continued for 4 h. The control group used the same volume of PBS (0.1 M, pH 6.8) to replace AAPH. The pre-treated samples were added to 5 × SDS loading buffer and treated in water at 95 °C for 15 min. […] After electrophoresis, the gels were stained with Coomassie brilliant blue R-250 dye (0.25%, w/v), and then the gels were decolorized with the decolorizing solution. Finally, images were taken using the SDS-PAGE gel imaging system (ChampChemi 610, China) and the grayscale of Western blot was analyzed using Image J software.

IL-1β = IL-1β secretion in LPS-stimulated RAW 264.7 macrophages (ELISA); format: cell-based, mouse; settings: 40 µM, LPS 1 µg/mL, 48 h, vs model control (p < 0.0001)
Method: In order to increase cytokine production, macrophages were treated with LPS at a final concentration of 1 µg/mL, and then with T. grandis compounds at 40 µM. The compounds were solubilized in DMEM medium containing 0.1% DMSO. Dexamethasone was employed as a positive control (5 µg/mL). A centrifuge was used to separate the supernatant from the cells after 48 h of incubation, with three replicates per group. Quantification of TNF-α, IL-1β and IL-6 secretion was achieved by following the ELISA manufacturer's instructions. Then, absorbance was measured at 450 nm. Relative TNF-α, IL-1β and IL-6 expression was calculated according to Equation (4). Following the inflammatory factor test, cell viability was detected by CellTiter96® Aqueous One Solution Cell Proliferation Assay. Then, 20 μL/well CellTiter96® Aqueous One Solution Cell Growth Assay reagent was added to the plate and incubated at 37 °C for 8 h, absorbance was measured at […] and relative cell viability was calculated according to Equation (5). Relative content of inflammatory cytokines (%) = (A1/A2)/A3 × 100%(4) where A1 is the concentrations value of inflammatory cytokines of each group, A2 is the relative cell viability of each group (model group is 100) and A3 is the concentration of inflammatory cytokines of model group. Cell viability rate (%) = B1/B2 × 100%(5) where B1 is the OD value of each fraction group or positive control group and B2 is the OD value of the model control.

O=C(O)c1cc(O)c(O)c(O)c1 [Compound 23, gallic acid]
EC50 [1]: 320 ± 70 nM
concentration at which a protective effect against protein oxidative damage begins (BSA): 320 µM
effect on IL-1β inflammatory factor level (IL-1β): significant decrease
